Data: patent US20240010987A1, “IN VITRO LIVER DISEASE MODEL USING TRIPLE CO-CULTURE AND PREPARATION METHOD THEREOF” (FUTURE MEDICINE CO., LTD., priority 2020, published 2024)

Experiments:
[1] = tested on: HuH-7:LX-2:ImKC triple co-culture; test: Marker changes in triple co-culture in vitro liver disease model (steatosis, inflammation, fibrosis) after drug treatment; assay type: cell-based, human (HuH-7, mouse (ImKC); conditions: hepatic steatosis (FFA), inflammation (FFA+LPS) or fibrosis (FFA+TGF-β1) induced; FIGS. 5 to 14
Protocol: After the cells were fixed for 1 hour for direct co-culture, a 0.4 μm pore size cell culture insert (Corning™) was positioned on top of a direct co-culture dish for indirect co-culture of the corresponding cells with an immortalized mouse Kupffer cell line (ImKC). The cell suspensions of the immortalized mouse Kupffer cell line (ImKC) were added to the positioned cell culture insert (Corning™) such that the number of cells per area was 15,000 cells/cm^2, and the cells were cultured in a CO2 incubator (Thermo Scientific™) under 37° C. and 5% CO2 conditions for 24 hours (FIG. 1).
The cell culture dishes for each experimental group shown in the following Table 3, which was cultured for 24 hours in a CO2 incubator (Thermo Scientific™) under 37° C. and 5% CO2 conditions at 24 hours before FFA treatment, were taken out, the cell culture medium was carefully discarded, and a co-culture medium including 1,000 μM FFA (oleic:palmitic molar ratio 2:1) was added thereto. After FFA treatment, the cell culture dishes were incubated in a CO2 incubator (Thermo Scientific™) under 37° C. and 5% CO2 conditions for 144 hours. The co-culture medium including FFA was replaced at 48 and 96 hours after FFA treatment (FIG. 4).
The cell culture dishes for each experimental group shown in Table 3, which was cultured in a CO2 incubator (Thermo Scientific™) under 37° C. and 5% CO2 conditions at 72 and 96 hours before LPS treatment, were taken out, the cell culture medium was carefully discarded, and a culture medium including 0.5 ng/ml LPS was added to 1,000 μM FFA (oleic:palmitic molar ratio 2:1). After LPS treatment, the cell culture dishes were incubated in a CO2 incubator (Thermo Scientific™) under 37° C. and 5% CO2 conditions for 48 and 72 hours. […]
The absorbance of each cell culture treated with FM101 and the control material was measured in the same manner as in Experimental Example 3-1.
The absorbance of each cell culture treated with FM101 and the control material was measured in the same manner as in Experimental Example 3-2. […]

A3 adenosine receptor = conditions: in vivo experiments, EXCLI J. 2020 Feb. 12; 19:187-200; cited from earlier work

In the case of `CNC(=O)[C@H]1O[C@@H](n2cnc3c(NCc4cccc(I)c4)nc(Cl)nc32)[C@H](O)[C@@H]1O` [CF102, Namodenoson], the “responsiveness of markers in triple co-culture cells on drug treatment, compared to directly co-cultured cells” value [1] is reported as “higher responsiveness and more concentration-dependent responsiveness”.

In the case of `OC1CSC(n2cnc3c(NCc4cccc(Cl)c4)nc(Cl)nc32)C1O` (stereo not shown) [FM101], the “responsiveness of markers in triple co-culture cells on drug treatment, compared to directly co-cultured cells” value [1] is given as “higher responsiveness and more concentration-dependent responsiveness” and the “modulation of A3 adenosine receptor as A3AR ligand” value (A3 adenosine receptor) is given as “modulates an A3 adenosine receptor”.

For `CC(C)c1cc(Oc2c(Cl)cc(-n3nc(C#N)c(=O)[nH]c3=O)cc2Cl)n[nH]c1=O` [MGL-3196, Resmetirom], the “responsiveness of markers in triple co-culture cells on drug treatment, compared to directly co-cultured cells” value [1] was “higher responsiveness and more concentration-dependent responsiveness”.
